Measurements as given in patent US4244967A, “Antiphlogistic pharmaceutical compositions containing a phenylethanolamine and methods of use” (priority 1978, dated 1981).
Values joined by “and” are separate entries in the source; they are usually repeats but may differ in a detail not shown here. Identical values can stand only once.

Tests used:
[1] = long-lasting in vivo activity compared with other β-mimetics; details: no data given
[2] = tested on: human polymorphnuclear leucocytes (PMN); experiment: Inhibition of the release of lysosomal β-glucuronidase from human polymorphnuclear leucocytes (PMN) during phagocytosis of zymosan particles; type: cell-based; details: in vitro; for IC20: Homo sapiens, Leucocyte, 20% inhibition of release (EC20, not EC50), zymosan-phagocytosis, Fieller confidence limits given
Experimental: The compounds were tested for their inhibitory effect on the release of lyosomal enzymes (β-glucuronidase was the lysomal marker-enzyme) from human polymorphnuclear leucocytes (PMN) during the phagocytosis of zymosan particles. According to WEISSMANN, the release of lyosomal enzymes in the course of the phagocytosis of immune complexes plays a significant role for the "self perpetuation" in rheumatoid arthritis. The test was performed according to the method of WEISSMANN et al. [J. Exp. Med. 134, 149s-165s (1971)]. The buffer system and the incubation times were changed, the number of the zymosan particles and the number of PMN was standardized. From the inhibiting effects produced by the test substance in comparison with the zymosan control, an EC20 with confidence limits according to FIELLER (Quart. J. Pharm. Pharmacol. 17, 117-123 (1944) was calculated by linear regression analysis according to LINDER [Stat. Methoden, 4th Ed., 148-162, published by Birkhauser, Basel, Switzerland (1964)] as the end concentration of the test substance that produced a 20% inhibition of the release of lysosomal β-glucuronidasefrom human polymorphnuclear leucocytes in vitro during the zymosan-phagocytosis.
Effect on the release of lysosomal β-glucuronidase from human polymorph-nucleic leucocytes under zymosan-phagocytosis.

enteral absorption = type: in vivo; details: no data given

SMILES	in vivo activity, duration [1]	IC20 [2]	stronger inhibitor of the release of lysosomal enzymes than terbutaline sulfate ([2]; relative to terbutaline sulfate (B))	enteral absorption (enteral absorption)
CCOC(=O)Nc1c(F)cc(C(O)CNC(C)(C)C)cc1C#N.Cl (centres unmarked) [Compound A, 1-(4-ethoxycarbonylamino-3-cyano-5-fluoro-phenyl)-2-tert. butylamino-ethanol hydrochloride]	long-lasting	130 nM and 0.0468 µg/mL	about 18 times stronger	very good
CC(C)(C)NCC(O)c1cc(O)cc(O)c1 (centres unmarked) [B, reference compound]	–	2.4 µM and 0.658 µg/mL	–	–
